{
  "source": "patent US11427615B2",
  "about": "“Peptide compound and application thereof, and composition containing peptide compound” (XDCEXPLORER (SHANGHAI) CO., LTD., priority 2017, dated 2022)",
  "note": "Starred links: 1 amine or outer side, 2 acyl side, 3 side chain; linkers in the order of their positions; H or OH if unused. Non-standard residues stand in square brackets, D forms with d. Residues, ends and D or L forms follow the SMILES beside them. Ala(1-Me-3-pyridinium) = C[n+]1cccc(C[C@H](N)C(=O)O)c1; dPhe(2,4-Cl2) = N[C@H](Cc1ccc(Cl)cc1Cl)C(=O)O; X12 = O=C([C@@H]1Cc2ccccc2N1[*:1])[*:2]; Pro(4,4-F2) = O=C(O)[C@@H]1CC(F)(F)CN1; dAla(2-furyl) = N[C@H](Cc1ccco1)C(=O)O; Arg(Me) = CNC(=N)NCCC[C@H](N)C(=O)O; Hyp = O=C(O)[C@@H]1C[C@@H](O)CN1; Tic = O=C(O)[C@@H]1Cc2ccccc2CN1; Pip = O=C(O)[C@@H]1CCCCN1; dPip = O=C(O)[C@H]1CCCCN1; Ac6c = NC1(C(=O)O)CCCCC1; azaGly = NNC(=O)O",
  "data": [
    {"molecular_target": "T1, human kiss1 receptor (GPR54) (Homo sapiens, UniProt Q969F8)", "T1 construct": "host or cells: NFAT-bla CHO-K1 cells (Chinese hamster ovary), purchased recombinant cell line", "T1 sequence (Q969F8 whole entry)": "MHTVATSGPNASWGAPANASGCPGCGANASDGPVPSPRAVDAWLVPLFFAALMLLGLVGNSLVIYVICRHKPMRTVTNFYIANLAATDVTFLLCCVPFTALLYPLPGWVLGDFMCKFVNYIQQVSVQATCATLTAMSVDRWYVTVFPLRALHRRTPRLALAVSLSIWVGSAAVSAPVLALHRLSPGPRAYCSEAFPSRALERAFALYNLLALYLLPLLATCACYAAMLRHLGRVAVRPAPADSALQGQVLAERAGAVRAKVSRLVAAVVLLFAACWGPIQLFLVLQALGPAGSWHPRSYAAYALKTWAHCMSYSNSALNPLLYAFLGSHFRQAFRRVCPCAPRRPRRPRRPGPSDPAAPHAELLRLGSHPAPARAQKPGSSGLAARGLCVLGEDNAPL", "assay": "Kiss1 receptor (GPR54) binding activity of agonists, FRET detection in NFAT-bla CHO-K1 cells", "type": "cell-based", "conditions": "GPR54; measured according to the method of effect Embodiment 1; preliminary data; read-out: Preliminary measurement data (GPR54) EC50", "units": {"EC50": "nM"}, "values": [
      {"smiles": "CNC(=N)NCCC[C@H](NC(=O)[C@H](CC(C)C)NC(=O)[C@@H]1Cc2ccccc2N1C(=O)[C@H](Cc1ccccc1)NC(=O)[C@@H](NC(=O)[C@H](CC(N)=O)NC(=O)[C@@H]1CC(F)(F)CN1C(=O)[C@@H](Cc1ccco1)NC(C)=O)[C@@H](C)O)C(=O)N[C@@H](Cc1c[nH]c2ccccc12)C(N)=O", "note": "[YA-223, Ac-[3-(2-furyl)-D-Ala]-DifluoroPro-Asn-Thr-Phe-Ind-Leu-Arg(Me)-Trp-NH2] (Ac-[dAla(2-furyl)][Pro(4,4-F2)]NTF[X12]L[Arg(Me)]W-NH2)", "EC50": 4.4},
      {"smiles": "CNC(=N)NCCC[C@H](NC(=O)[C@H](CC(C)C)NC(=O)C1(NC(=O)[C@H](Cc2ccccc2)NC(=O)[C@@H](NC(=O)[C@H](CC(N)=O)NC(=O)[C@@H]2CC(F)(F)CN2C(=O)[C@@H](Cc2ccco2)NC(C)=O)[C@@H](C)O)CCCCC1)C(=O)N1Cc2ccccc2C[C@H]1C(N)=O", "note": "[YA-224, Ac-[3-(2-furyl)-D-Ala]-DifluoroPro-Asn-Thr-Phe-A6C-Leu-Arg(Me)-Tic-NH2] (Ac-[dAla(2-furyl)][Pro(4,4-F2)]NTF[Ac6c]L[Arg(Me)][Tic]-NH2)", "EC50": 6.5},
      {"smiles": "CNC(=N)NCCC[C@H](NC(=O)[C@H](CC(C)C)NC(=O)[C@@H]1CCCCN1C(=O)[C@H](Cc1ccccc1)NC(=O)[C@@H](NC(=O)[C@H](CC(N)=O)NC(=O)[C@@H]1C[C@@H](O)CN1C(=O)[C@@H](Cc1ccc(O)cc1)NC(C)=O)[C@@H](C)O)C(=O)N[C@@H](Cc1c[nH]c2ccccc12)C(N)=O", "note": "[YA-226, Ac-(D-Tyr)-Hyp-Asn-Thr-Phe-(S-Pip)-Leu-Arg(Me)-Trp-NH2] (Ac-[dY][Hyp]NTF[Pip]L[Arg(Me)]W-NH2)", "EC50": 8},
      {"smiles": "CNC(=N)NCCC[C@H](NC(=O)[C@H](CC(C)C)NC(=O)[C@H]1CCCCN1C(=O)[C@H](Cc1ccccc1)NC(=O)[C@@H](NC(=O)[C@H](CC(N)=O)NC(=O)[C@@H]1C[C@@H](O)CN1C(=O)[C@@H](Cc1ccc(O)cc1)NC(C)=O)[C@@H](C)O)C(=O)N[C@@H](Cc1c[nH]c2ccccc12)C(N)=O", "note": "[YA-227, Ac-(D-Tyr)-Hyp-Asn-Thr-Phe-(R-Pip)-Leu-Arg(Me)-Trp-NH2] (Ac-[dY][Hyp]NTF[dPip]L[Arg(Me)]W-NH2)", "EC50": 1.89},
      {"smiles": "CNC(=N)NCCC[C@H](NC(=O)[C@H](CC(C)C)NC(=O)C1(NC(=O)[C@H](Cc2ccccc2)NC(=O)[C@@H](NC(=O)[C@H](CC(N)=O)NC(=O)[C@@H]2CCCCN2C(=O)[C@@H](Cc2ccc(O)cc2)NC(C)=O)[C@@H](C)O)CCCCC1)C(=O)N[C@@H](Cc1c[nH]c2ccccc12)C(N)=O", "note": "[YA-228, Ac-D-Tyr-(S-Pip)-Asn-Thr-Phe-A6c-Leu-Arg(Me)-Trp-NH2] (Ac-[dY][Pip]NTF[Ac6c]L[Arg(Me)]W-NH2)", "EC50": 0.65},
      {"smiles": "CNC(=N)NCCC[C@H](NC(=O)[C@H](CC(C)C)NC(=O)C1(NC(=O)[C@H](Cc2ccccc2)NC(=O)[C@@H](NC(=O)[C@H](CC(N)=O)NC(=O)[C@H]2CCCCN2C(=O)[C@@H](Cc2ccc(O)cc2)NC(C)=O)[C@@H](C)O)CCCCC1)C(=O)N[C@@H](Cc1c[nH]c2ccccc12)C(N)=O", "note": "[YA-229, Ac-(D-Tyr)-(R-Pip)-Asn-Thr-Phe-A6c-Leu-Arg(Me)-Trp-NH2] (Ac-[dY][dPip]NTF[Ac6c]L[Arg(Me)]W-NH2)", "EC50": 20.3},
      {"smiles": "CNC(=N)NCCC[C@H](NC(=O)[C@H](CC(C)C)NC(=O)NNC(=O)[C@H](Cc1ccccc1)NC(=O)[C@@H](NC(=O)[C@H](CC(N)=O)NC(=O)[C@@H]1C[C@@H](O)CN1C(=O)[C@H](Cc1ccc[n+](C)c1)NC(C)=O)[C@@H](C)O)C(=O)N[C@@H](Cc1c[nH]c2ccccc12)C(N)=O", "note": "[YA-239, Ac-[(S)-3-(2-amino-2-carboxyethyl)-1-methylpyridinium]-Hyp-Asn-Thr-Phe-azaGly-Leu-Arg(Me)-Trp-NH2] (Ac-[Ala(1-Me-3-pyridinium)][Hyp]NTF[azaGly]L[Arg(Me)]W-NH2)", "EC50": 1},
      {"smiles": "CNC(=N)NCCC[C@H](NC(=O)[C@H](CC(C)C)NC(=O)C1(NC(=O)[C@H](Cc2ccccc2)NC(=O)[C@@H](NC(=O)[C@H](CC(N)=O)NC(=O)[C@@H]2CC(F)(F)CN2C(=O)[C@@H](Cc2ccc(Cl)cc2Cl)NC(C)=O)[C@@H](C)O)CCCCC1)C(=O)N[C@@H](Cc1c[nH]c2ccccc12)C(N)=O", "note": "[YA-248, Ac-[D-Phe(2,4-diCl)]-Pro(diF)-Asn-Thr-Phe-A6c-Leu-Arg(Me)-Trp-NH2] (Ac-[dPhe(2,4-Cl2)][Pro(4,4-F2)]NTF[Ac6c]L[Arg(Me)]W-NH2)", "EC50": 0.78},
      {"smiles": "CNC(=N)NCCC[C@H](NC(=O)[C@H](CC(C)C)NC(=O)C1(NC(=O)[C@H](Cc2ccccc2)NC(=O)[C@@H](NC(=O)[C@H](CC(N)=O)NC(=O)[C@@H]2CC(F)(F)CN2C(=O)[C@@H](Cc2ccc(O)cc2)NC(C)=O)[C@@H](C)O)CCCCC1)C(=O)N[C@@H](Cc1c[nH]c2ccccc12)C(N)=O", "note": "[YA-251, Ac-D-Tyr-Pro(diF)-Asn-Thr-Phe-A6c-Leu-Arg(Me)-Trp-NH2] (Ac-[dY][Pro(4,4-F2)]NTF[Ac6c]L[Arg(Me)]W-NH2)", "EC50": 0.65}
    ]}
  ]
}
